What is called IC50 is the concentration at which inhibition is half-maximal. A high value points to weaker potency in that assay.

Like-named read-outs stand apart in the source and are kept apart here.

This assay has as its target T1, GRK2 (Homo sapiens, UniProt P25098).
T1 sequence (P25098 1-689): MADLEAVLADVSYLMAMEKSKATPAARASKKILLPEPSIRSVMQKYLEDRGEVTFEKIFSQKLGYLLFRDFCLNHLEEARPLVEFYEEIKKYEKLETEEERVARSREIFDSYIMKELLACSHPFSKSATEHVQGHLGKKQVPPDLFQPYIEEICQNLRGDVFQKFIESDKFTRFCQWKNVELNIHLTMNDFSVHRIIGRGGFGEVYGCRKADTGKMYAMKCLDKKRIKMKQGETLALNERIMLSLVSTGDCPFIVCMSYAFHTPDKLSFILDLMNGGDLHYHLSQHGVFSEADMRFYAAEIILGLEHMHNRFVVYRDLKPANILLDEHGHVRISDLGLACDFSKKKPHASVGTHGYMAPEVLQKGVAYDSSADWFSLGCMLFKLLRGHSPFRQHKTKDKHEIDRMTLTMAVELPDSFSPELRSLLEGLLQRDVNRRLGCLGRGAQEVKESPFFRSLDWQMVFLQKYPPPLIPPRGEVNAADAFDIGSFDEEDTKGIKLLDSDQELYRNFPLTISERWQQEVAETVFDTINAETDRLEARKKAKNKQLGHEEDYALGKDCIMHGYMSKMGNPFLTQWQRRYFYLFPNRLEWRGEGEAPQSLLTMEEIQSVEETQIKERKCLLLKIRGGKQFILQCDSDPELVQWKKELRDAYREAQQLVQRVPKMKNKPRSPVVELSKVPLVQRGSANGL
The experiment in a line: hGRK2 LANCE Ultra In Vitro Assay. It is filed as biochemical. The protocol:
hGRK2 LANCE Ultra In Vitro Assay
G-protein coupled receptor kinases (GR Kinases) desensitize activated G-protein coupled receptors (GPCRs), by phosphorylation of cytoplasmic loops or carboxyl-terminal tails of GPCRs. GRK2 is one of the 6 different GR kinases and is implicated in heart failure and diabetes.
This assay is sensitive and requires as low as 10 nM enzyme, in a total volume of 10 μL. In addition, the ATP concentration can be varied over a broad range, without interfering with the assay or changing the assay condition. […] Testing inhibitors routinely at both high and low ATP concentrations also enables identification of potential non-ATP competitive inhibitors.
Paroxetine was used as the reference compound in this assay.
Test compounds were dissolved in DMSO at 1 mM and were 3-fold serial diluted. The compound DMSO solutions were then added (100 nL) into a plate well using an acoustic dispenser. To each well was then added 20 nM GRK2 (5 μL) in assay buffer (20 mM HEPES, pH 7.5, 10 mM MgCl2, 0.001% Tween-20®). The plate was sealed and centrifuged at 1000 rpm for 1 min. The plate and wells containing a mixture of GRK2 and test compound were incubated at ambient temperature for 30 min (prior to initializing the enzymatic reaction).
Enzyme reactions were initiated by the addition of 4.9 μL Substrates/Eu-Ab mix to each well. […] Final concentrations of reagents in the assays were as follows: 20 mM HEPES, pH 7.5; 10 mM MgCl2; 0.001% Tween-20® (w/v); 30 or 600 μM ATP; 200 nM ULight-peptide; 4 nM Eu-Ab; 10 nM GRK2; and 1% DMSO.
The plates were sealed and centrifuged at 1000 rpm for 1 min. For reactions at low ATP concentration (30 μM), reaction mixtures were incubated at ambient temperature for 120 min. For reactions at high ATP concentration (600 μM), reaction mixtures were incubated at ambient temperature for 60 min.
The enzyme reactions were quenched by addition of 10 μL of 12 mM EDTA in 1× LANCE detection solution to each well. The plates were then incubated at ambient temperature for 30 min. Time-resolved fluorescence signal of reactions were read on an EnVision or PHERAstar plate reader with the following parameters: Excitation wavelength=337 nm; emission wavelength (donor)=620 nm; emission wavelength (acceptor)=665 nm.
The raw HTRF data were converted to % active as follows:
% active=(sample−NC)/(PC−NC)*100
where NC is the mean of negative control (reactions without GRK2), and PC is the mean of positive control (reactions with GRK2 but without inhibitor). IC50 values were determined from a 4-parameter fit, using the following equation:
Y=Bottom+(Top−Bottom)/(1+10^((Log IC50−X)*Hill slope))
where X=log10 of the compound concentration.

Where [1] appears, read: Biological Example 1 GRK2 Lancer IC50 (μM), 10 nM GRK2, 30 or 600 μM ATP (not stated which), multiple measurements listed individually.

For the compound `COc1cccc([C@@H](C)N2Cc3c(cc(-c4cn[nH]c4)cc3-c3cncc(F)c3)C2=O)c1` [Compound 120, (R)-4-(5-fluoropyridin-3-yl)-2-(1-(3-methoxyphenyl)ethyl)-6-(1H-pyrazol-4-yl)isoindolin-1-one], the IC50 under setting [1] amounted to 0.009 µM.
Regarding `O=C1c2cc(-c3cn[nH]c3)ccc2CN1Cc1cccc(Oc2ccccc2)c1` [Compound 103], under setting [1], the midpoint of inhibition, the IC50, lay at 0.033 µM.
Same read-out and setting: the figure for `CNC1CCC2(C1)c1ccc(-c3cn[nH]c3)cc1C(=O)N2Cc1cccc(OC)c1` (stereo not shown) [Compound 118, 2′-(3-methoxybenzyl)-3-(methylamino)-5′-(1H-pyrazol-4-yl)spiro[cyclopentane-1,1′-isoindolin]-3′-one] is less than 0.005 µM; for `COc1cccc(CN2C(=O)c3cc(-c4cn[nH]c4)ccc3C23CCc2c(O)cccc23)c1` (stereo not shown) [Compound 89, 4-hydroxy-2′-(3-methoxybenzyl)-5′-(1H-pyrazol-4-yl)-2,3-dihydrospiro[indene-1,1′-isoindolin]-3′-one] it is 0.144 µM; for `COc1cccc(CN2C(=O)c3cc(-c4cn[nH]c4)ccc3C23CCC(OC)C3)c1` (stereo not shown) [Compound 170] it is 0.006 µM.
In turn, `COc1cccc(CN2C(=O)c3cc(-c4cn[nH]c4)ccc3C23CCCC3N)c1` (stereo not shown) [Compound 123, 2-amino-2′-(3-methoxybenzyl)-5′-(1H-pyrazol-4-yl)spiro[cyclopentane-1,1′-isoindolin]-3′-one] came in with an IC50 under setting [1] of 0.015 µM.
The compound `COc1cccc(CN2C(=O)c3cc(-c4cn[nH]c4)ccc3C23CCCC3C(=O)O)c1` (stereo not shown) [Compound 110, 2′-(3-methoxybenzyl)-3′-oxo-5′-(1H-pyrazol-4-yl)spiro[cyclopentane-1,1′-isoindoline]-2-carboxylic acid] gave an IC50 of 0.307 µM.
In the case of `CCOc1cccc([C@@H](C)N2Cc3ccc(-c4ccnc5[nH]ccc45)cc3C2=O)c1` [Compound 167], under setting [1], the IC50 is more than 20 µM.
Compound `CC(C)Oc1cccc(CN2Cc3ccc(-c4cn[nH]c4)cc3C2=O)c1` [Compound 69, 2-(3-Isopropoxybenzyl)-6-(1H-pyrazol-4-yl)isoindolin-1-one] registered a half-maximal inhibitory concentration (IC50) under setting [1] of 0.006 µM.
In turn, `CC(c1cccc(Oc2ccccc2)c1)N1Cc2ccc(-c3cn[nH]c3)cc2C1=O` (stereo not shown) [Compound 104] registered a half-inhibitory concentration (IC50) under setting [1] of more than 11 µM.
On to `COc1cccc(CN2C(=O)c3cc(-c4cn[nH]c4)ccc3C23CCC(O)C3O)c1` (stereo not shown) [Compound 102, 2,3-dihydroxy-2′-(3-methoxybenzyl)-5′-(1H-pyrazol-4-yl)spiro[cyclopentane-1,1′-isoindolin]-3′-one], for which the IC50 under setting [1] is 0.006 µM.
On to `COc1cccc(CN2Cc3ccc(-c4ccncc4)cc3C2=O)c1` [Compound 66], for which it took 0.023 µM to reach half-maximal inhibition under setting [1] (IC50).
Same read-out and setting: the figure for `COc1cccc([C@@H](C)N2Cc3c(cc(-c4cn[nH]c4)cc3-c3ccc(O)cc3)C2=O)c1` [Compound 129, (R)-4-(4-hydroxyphenyl)-2-(1-(3-methoxyphenyl)ethyl)-6-(1H-pyrazol-4-yl)isoindolin-1-one] is 0.011 µM; for `CCOc1cccc(C(CO)N2Cc3ccc(-c4cn[nH]c4)cc3C2=O)c1` (stereo not shown) [Compound 53, 2-(2-Hydroxy-1-(3-ethoxyphenyl)ethyl)-6-(1H-pyrazol-4-yl)isoindolin-1-one] it is 0.008 µM.
Still for that read-out and setting: the figure for `CC(C)NC(=O)c1cccc([C@@H](C)N2Cc3ccc(-c4cn[nH]c4)cc3C2=O)c1` [Compound 31] is 5.38 µM; for `COc1cccc([C@@H](C)N2C(=O)c3cc(-c4cn[nH]c4)ccc3C2CCO)c1` (stereo partly drawn) [Compound 49, 3-(2-hydroxyethyl)-2-((R)-1-(3-methoxyphenyl)ethyl)-6-(1H-pyrazol-4-yl)isoindolin-1-one] it is less than 0.005 µM.
On the same count and under the same terms, the figure for `CNC(=O)c1cc(-c2ccc3c(c2)C(=O)N(Cc2cccc(OC)c2)C3)ccn1` [Compound 37, 4-(2-(3-methoxybenzyl)-3-oxoisoindolin-5-yl)-N-methylpicolinamide] is more than 20 µM; for `COc1cccc(CN2C(=O)c3cc(-c4cn[nH]c4)ccc3C23CCC2OC(=O)NC23)c1` (stereo not shown) [Compound 151, 2′-(3-methoxybenzyl)-5′-(1H-pyrazol-4-yl)-3a,5,6,6a-tetrahydrospiro[cyclopenta[d]oxazole-4,1′-isoindoline]-2,3′(3H)-dione] it is 0.011 µM; for `COc1cccc([C@@H](C)N2Cc3c(cc(-c4cn[nH]c4)cc3-c3ccc(C(F)(F)F)nc3)C2=O)c1` [Compound 145, (R)-2-(1-(3-methoxyphenyl)ethyl)-6-(1H-pyrazol-4-yl)-4-(6-(trifluoromethyl)pyridin-3-yl)isoindolin-1-one] it is 0.285 µM.
On to `COC(=O)COc1cccc(CN2Cc3ccc(-c4ccnc5[nH]ccc45)cc3C2=O)c1` [Compound 54], for which the concentration for half-maximal inhibition (IC50) under setting [1] was 0.292 µM.
Still for that read-out and setting: with `COc1cccc(-c2cc(-c3cn[nH]c3)cc3c2CN([C@H](C)c2cccc(OC)c2)C3=O)c1` [Compound 140, (R)-4-(3-methoxyphenyl)-2-(1-(3-methoxyphenyl)ethyl)-6-(1H-pyrazol-4-yl)isoindolin-1-one] the figure was 0.265 µM; with `COc1cccc(C(CC(=O)O)N2Cc3ccc(-c4cn[nH]c4)cc3C2=O)c1` (stereo not shown) [Compound 100, 3-(3-methoxyphenyl)-3-(1-oxo-6-(1H-pyrazol-4-yl)isoindolin-2-yl)propanoic acid], 6.24 µM; with `O=C1c2cc(-c3ccncn3)ccc2CN1Cc1cccc(Oc2ccccc2)c1` [Compound 106], 0.419 µM.
Same read-out and setting: the figure for `O=C1c2cc(-c3cn[nH]c3)ccc2CN1Cc1cccc(O)c1` [Compound 135] is 0.005 µM.
As for `O=C(Nc1ccc(F)c(F)c1)c1cccc(CN2Cc3ccc(-c4cn[nH]c4)cc3C2=O)c1` [Compound 34], 0.006 µM corresponded to half-maximal inhibition under setting [1] (IC50).
Consider `COc1cccc(CN2Cc3ccc(-c4ccnc5[nH]ccc45)cc3C2=O)c1` [Compound 50], for which the 50% inhibitory concentration (IC50) under setting [1] worked out at 0.334 µM.
Regarding `CCOc1cccc([C@@H](CO)N2Cc3ccc(-c4cn[nH]c4)cc3C2=O)c1` [Compound 114], the half-inhibitory concentration (IC50) under setting [1] stood at 0.006 µM.
As for `COc1cccc(CN2C(=O)c3cc(-c4cn[nH]c4)ccc3C2CC(=O)O)c1` (stereo not shown) [Compound 61, 2-(2-(3-Methoxybenzyl)-3-oxo-5-(1H-pyrazol-4-yl)isoindolin-1-yl)acetic acid], under setting [1], the IC50 was found to be 0.012 µM.
Still for that read-out and setting: with `O=C1c2cc(-c3cn[nH]c3)ccc2CN1Cc1ccc(F)s1` [Compound 43, 2-((5-Fluorothiophen-2-yl)methyl)-6-(1H-pyrazol-4-yl)isoindolin-1-one] the figure was 0.088 µM; with `O=C(Oc1cccc(CN2Cc3ccc(-c4cn[nH]c4)cc3C2=O)c1)C1CC1` [Compound 137], 0.034 µM; with `O=C1c2cc(-c3cn[nH]c3)ccc2CN1Cc1cccc(OC2COC2)c1` [Compound 91], 0.116 µM.
The same measure, in the same setting: with `COc1cccc(C(C(=O)c2ccccc2)N2Cc3ccc(-c4cn[nH]c4)cc3C2=O)c1` (stereo not shown) [Compound 92, 2-(1-(3-methoxyphenyl)-2-oxo-2-phenylethyl)-6-(1H-pyrazol-4-yl)isoindolin-1-one] the figure was 5.01 µM.
In turn, `COC(=O)[C@H](c1cccc(OC)c1)N1Cc2ccc(-c3cn[nH]c3)cc2C1=O` [Compound 72] registered a concentration for half-maximal inhibition (IC50) under setting [1] of 0.13 µM.
Turning to `COc1cccc(C(CO)N2Cc3ccc(-c4cn[nH]c4)cc3C2=O)c1` (single isomer, unassigned) [Compound 172], the half-maximal inhibitory concentration (IC50) under setting [1] worked out at 0.148 µM.

For the origin of these results see patent publication US20220009906A1, “ISOINDOLIN-1-ONE DERIVATIVES USEFUL AS GRK2 INHIBITORS” (priority 2020, published 2022).
